Data: US8124764B2, “Fused heterocyclyc inhibitor compounds” (Gilead Sciences, Inc., priority 2008, dated 2012)

Experiments:
HDAC 1 = HDAC 1 (Homo sapiens, UniProt Q13547); assay: HDAC 1 inhibition assay with about 3 hours enzyme/compound preincubation (fluorophore/quencher peptide substrate); format: biochemical; conditions: 3-hour preincubation of enzyme with compound; read-out: HDAC 1 inhibitory activity (IC50 [μM]) (3-hour preincubation)
Protocol: HDAC inhibitory activity of the compound of Example 1 was measured by two types of assays in which HDAC 1 was used as a target molecule. The first assay was carried out without preincubation after addition of the enzyme. The test compound was suspended in and titrated in dmso. It was then spotted into a 384-well test plate. The enzyme, HDAC 1, was diluted in assay buffer containing 25 mM Tris-HCl (pH 8.0), 137 mM NaCl, 2.7 mM KCl, and 0.01% Tween-20 and added to the pre-spotted compound. The peptide substrate containing a fluorophore/quencher pair was diluted in the same assay buffer and added to the compound/enzyme mix initiating the reaction. The reaction incubated at room temperature for about 45 minutes. A concentrated developer solution was diluted in the assay buffer, and added to the reaction. The reaction was incubated at room temperature for about 15 minutes and relative fluorescence was read on an instrument reader.
The second assay is similar to the first assay described above, except that preincubation is carried out for about 3 hours after the enzyme is introduced. The test compound was suspended in, and titrated in DMSO. It was then spotted into a 384-well test plate. The enzyme, HDAC 1, was diluted in the same assay buffer as used in the previous assay and added to the pre-spotted compound. The enzyme/compound mix was incubated at room temperature for about 3 hours. The peptide substrate containing a fluorophore/quencher pair was diluted in the assay buffer and added to the compound/enzyme mix initiating the reaction. The reaction incubated at room temperature for 45 minutes. A concentrated developer solution was diluted in the assay buffer, and added to the reaction. The reaction was incubated at room temperature for about 15 minutes and relative fluorescence was read on an instrument reader.

CDK2 = CDK2 (Homo sapiens, UniProt P24941); assay: CDK2 inhibition; format: biochemical

HDAC 1, sequence (Q13547 whole entry, species assumed): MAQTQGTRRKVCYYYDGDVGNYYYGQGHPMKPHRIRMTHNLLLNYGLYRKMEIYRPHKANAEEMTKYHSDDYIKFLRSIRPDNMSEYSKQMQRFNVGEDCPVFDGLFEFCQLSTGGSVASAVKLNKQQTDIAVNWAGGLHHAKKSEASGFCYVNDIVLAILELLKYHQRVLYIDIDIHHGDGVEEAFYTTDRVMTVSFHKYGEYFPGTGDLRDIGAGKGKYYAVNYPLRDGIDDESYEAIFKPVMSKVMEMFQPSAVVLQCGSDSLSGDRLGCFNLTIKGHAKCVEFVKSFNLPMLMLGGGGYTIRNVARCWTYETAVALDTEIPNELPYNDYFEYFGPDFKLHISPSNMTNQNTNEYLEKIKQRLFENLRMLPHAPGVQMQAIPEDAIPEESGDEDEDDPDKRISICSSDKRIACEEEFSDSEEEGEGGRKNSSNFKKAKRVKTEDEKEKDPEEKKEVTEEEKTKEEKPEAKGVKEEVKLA

Molecule | IC50 (HDAC 1) [µM] | IC50 (CDK2) [µM]
Cc1nc2ccccn2c1-c1ccnc(Nc2cc(C(=O)Nc3ccccc3N)cs2)n1 [Example 59, N-(2-aminophenyl)-5-(4-(2-methylimidazo[1,2-a]pyridin-3-yl)pyrimidin-2-ylamino)thiophene-3-carboxamide] | 0.993 | 0.04
Cc1nc2ccccn2c1-c1ccnc(Nc2cc(C(=O)NO)cs2)n1 [Example 60, N-hydroxy-5-(4-(2-methylimidazo[1,2-a]pyridin-3-yl)pyrimidin-2-ylamino)thiophene-3-carboxamide] | 0.164 | 0.03
Cc1nc2ccccn2c1-c1ccnc(Nc2nc(C(=O)NO)cs2)n1 [Example 61, N-hydroxy-2-(4-(2-methylimidazo[1,2-a]pyridin-3-yl)pyrimidin-2-ylamino)thiazole-4-carboxamide] | 1.8 | 0.56
Cc1nc2ccccn2c1-c1ccnc(Nc2nc(C(=O)Nc3ccccc3N)cs2)n1 [Example 62, N-(2-aminophenyl)-2-(4-(2-methylimidazo[1,2-a]pyridin-3-yl)pyrimidin-2-ylamino)thiazole-4-carboxamide] | > 10 | 1.36
Cc1nc2ccccn2c1-c1ccnc(Nc2ncc(C(=O)Nc3ccccc3N)s2)n1 [Example 63, N-(2-aminophenyl)-2-(4-(2-methylimidazo[1,2-a]pyridin-3-yl)pyrimidin-2-ylamino)thiazole-5-carboxamide] | 0.224 | 3.53
Cc1nc2ccccn2c1-c1ccnc(Nc2ccc(C(=O)NO)cn2)n1 [Example 64, N-hydroxy-6-(4-(2-methylimidazo[1,2-a]pyridin-3-yl)pyrimidin-2-ylamino)nicotinamide] | 0.094 | 0.52
Cc1nc2ccccn2c1-c1ccnc(Nc2ncc(C(=O)NO)s2)n1 [Example 65, N-hydroxy-2-(4-(2-methylimidazo[1,2-a]pyridin-3-yl)pyrimidin-2-ylamino)thiazole-5-carboxamide] | 0.109 | 1.86
Cc1nc2ccccn2c1-c1ccnc(Nc2ccc(C(=O)Nc3ccccc3N)cn2)n1 [Example 66, N-(2-aminophenyl)-6-(4-(2-methylimidazo[1,2-a]pyridin-3-yl)pyrimidin-2-ylamino)nicotinamide] | 0.289 | 3.48
Cc1nc2ccccn2c1-c1ccnc(Nc2cnc(C(=O)NO)cn2)n1 [Example 67, N-hydroxy-5-(4-(2-methylimidazo[1,2-a]pyridin-3-yl)pyrimidin-2-ylamino)pyrazine-2-carboxamide] | 0.169 | 0.68
Cc1nc2ccccn2c1-c1ccnc(Nc2cnc(C(=O)Nc3ccccc3N)cn2)n1 [Example 68, N-(2-aminophenyl)-5-(4-(2-methylimidazo[1,2-a]pyridin-3-yl)pyrimidin-2-ylamino)pyrazine-2-carboxamide] | 0.0206 | > 40
Cc1nc2ccccn2c1-c1ccnc(Nc2ccc(C(=O)NO)cn2)c1 [Example 69, N-hydroxy-6-(4-(2-methylimidazo[1,2-a]pyridin-3-yl)pyridin-2-ylamino)nicotinamide] | 0.141 | 0.15
Cc1nc2ccccn2c1-c1ccnc(Nc2ccc(C(=O)Nc3ccccc3N)cn2)c1 [Example 70, N-(2-aminophenyl)-6-(4-(2-methylimidazo[1,2-a]pyridin-3-yl)pyridin-2-ylamino)nicotinamide] | 0.073 | 0.87
Cc1nc2ccccn2c1-c1ccnc(Nc2csc(C(=O)NO)c2)n1 [Example 71, N-hydroxy-4-(4-(2-methylimidazo[1,2-a]pyridin-3-yl)pyrimidin-2-ylamino)thiophene-2-carboxamide] | 0.185 | 0.026
Cc1nc2ccccn2c1-c1ccnc(Nc2ncc(C(=O)NO)s2)c1 [Example 73, N-hydroxy-2-(4-(2-methylimidazo[1,2-a]pyridin-3-yl)pyridin-2-ylamino)thiazole-5-carboxamide] | 0.185 | 1.68
Cc1nc2ccccn2c1-c1ccnc(Nc2ncc(C(=O)NO)cn2)c1 [Example 74, N-hydroxy-2-(4-(2-methylimidazo[1,2-a]pyridin-3-yl)pyridin-2-ylamino)pyrimidine-5-carboxamide] | 0.104 | 6.47
N-hydroxy-2-(4-(2-methylimidazo[1,2-a]pyridin-3-yl)pyrimidin-2-ylamino)oxazole-5-carboxamide [Example 72] | 0.4 | > 40
